The target of series [1] is Adenosine receptor A2a (Rattus norvegicus, UniProt P30543). Put plainly: Binding affinity to rat A2A adenosine receptor. The following applies: for pKi: read-out: Ki.
The next series addresses T1, Adenosine receptor A1 (Homo sapiens, UniProt P30542).
T1 sequence (P30542 whole entry): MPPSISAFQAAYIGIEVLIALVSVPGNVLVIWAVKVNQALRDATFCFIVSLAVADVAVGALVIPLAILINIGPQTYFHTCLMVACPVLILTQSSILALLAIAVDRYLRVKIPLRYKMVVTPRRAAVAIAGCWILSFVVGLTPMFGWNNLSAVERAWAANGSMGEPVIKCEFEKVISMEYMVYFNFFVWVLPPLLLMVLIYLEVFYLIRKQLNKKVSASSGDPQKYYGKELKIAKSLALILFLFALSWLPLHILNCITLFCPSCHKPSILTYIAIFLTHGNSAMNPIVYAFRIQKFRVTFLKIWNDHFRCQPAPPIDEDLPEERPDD
Put plainly: Displacement of [3H]DPCPX from human adenosine A1 receptor expressed in CHO cell membranes after 60 mins by microplate scintillation counting analysis.

Series [2] deals with Rattus norvegicus. Put plainly: Anti-cataleptic activity in Sprague-Dawley rat assessed as inhibition of haloperidol-induced catalepsy at 30 mg/kg, po administered for 1 hr. In kind it is functional.
Series [3] addresses Adenosine receptor A2a (Homo sapiens, UniProt P29274). Put plainly: Displacement of [3H]SCH-58261 from human adenosine A2A receptor expressed in HEK cell membranes after 60 mins by microplate scintillation counting analysis. Also noted: species or system HEK293.
The test system of series [4] is Rattus norvegicus. Put plainly: Anti-cataleptic activity in Sprague-Dawley rat assessed as inhibition of haloperidol-induced catalepsy at 10 mg/kg, po administered for 1 hr. In kind it is functional.
Series [5] can be described thus: AUC in haloperidol-induced Sprague-Dawley rat cataleptic model at 10 mg/kg, po administered for 1 hr. In kind it is ADME, organism-based. The following applies: in vivo.
The nature of series [6]: AUC in haloperidol-induced Sprague-Dawley rat cataleptic model at 30 mg/kg, po administered for 1 hr. In kind it is ADME, organism-based. The following applies: in vivo.
Series [7] is described as follows: Solubility of compound at pH 7. In kind it is physicochemical. The following applies: buffer.

pKi: −log10 of the molar value. Values after ≈ are worked out from the molar mass of the structure shown.

Adenosine receptor A2a (Homo sapiens, UniProt P29274), sequence (P29274 whole entry): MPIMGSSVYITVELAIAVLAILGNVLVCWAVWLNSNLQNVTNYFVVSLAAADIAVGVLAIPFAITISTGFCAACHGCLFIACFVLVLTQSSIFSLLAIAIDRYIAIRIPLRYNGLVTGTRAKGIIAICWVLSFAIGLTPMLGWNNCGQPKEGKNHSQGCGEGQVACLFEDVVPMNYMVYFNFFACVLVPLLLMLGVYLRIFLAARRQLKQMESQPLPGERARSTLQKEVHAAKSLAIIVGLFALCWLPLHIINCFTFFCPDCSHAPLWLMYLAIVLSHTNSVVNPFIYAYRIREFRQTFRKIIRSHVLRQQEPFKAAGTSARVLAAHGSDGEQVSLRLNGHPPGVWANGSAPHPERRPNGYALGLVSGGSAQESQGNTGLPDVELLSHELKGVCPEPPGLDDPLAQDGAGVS
Adenosine receptor A2a (Rattus norvegicus, UniProt P30543), sequence (P30543 whole entry): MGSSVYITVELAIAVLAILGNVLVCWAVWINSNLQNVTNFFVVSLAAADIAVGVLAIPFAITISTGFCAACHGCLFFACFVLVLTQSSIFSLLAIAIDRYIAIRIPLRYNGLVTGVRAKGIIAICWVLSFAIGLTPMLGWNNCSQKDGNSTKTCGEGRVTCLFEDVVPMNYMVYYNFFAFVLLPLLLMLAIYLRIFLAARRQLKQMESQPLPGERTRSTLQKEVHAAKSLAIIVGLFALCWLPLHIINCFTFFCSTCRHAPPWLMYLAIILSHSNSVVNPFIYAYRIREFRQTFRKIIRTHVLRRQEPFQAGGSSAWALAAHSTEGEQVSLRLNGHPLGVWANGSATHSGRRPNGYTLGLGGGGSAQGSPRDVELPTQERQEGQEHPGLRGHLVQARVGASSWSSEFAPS

`Nc1nc(C(=O)NCc2cccc3cccnc23)c2cccc(C(F)(F)F)c2n1`: the figures for the pKi at Adenosine receptor A2a [1] and on Adenosine receptor A1 were 7.24 and 5.89, respectively. Besides, in the series on Rattus norvegicus [2], the inhibition in vivo at 30 mg/kg stood at 0%.
Consider `Cc1cccc(CNC(=O)c2nc(N)nc3c(F)cccc23)c1`, for which the values for the pKi on Adenosine receptor A1 and at Adenosine receptor A2a [3] were 6.95 and 8.08, respectively.
In the case of `Nc1nc(C(=O)NCCc2ccccn2)c2cccc(F)c2n1`, the pKi is 6.22 on Adenosine receptor A1 and 7.85 on Adenosine receptor A2a [3].
Consider `COc1ccnc2c(CNC(=O)c3nc(N)nc4c(F)cccc34)cccc12`, for which the results for the pKi on Adenosine receptor A2a [1], at Adenosine receptor A1 and at Adenosine receptor A2a [3] were 8.89, 7.16 and 7.82, respectively.
With `Nc1nc(C(=O)NCc2cccc3c2OCCN3)c2cccc(F)c2n1`, the figures for the pKi on Adenosine receptor A1 and on Adenosine receptor A2a [3] were 6.87 and 7.67, respectively.
`Nc1nc(C(=O)NCc2cccc3cc(C(=O)N4CCN(c5ccccn5)CC4)cnc23)c2cccc(F)c2n1`: the pKi at Adenosine receptor A2a [1] was 7.90; at Adenosine receptor A1 it was 6.96; on Adenosine receptor A2a [3] it was 8.57.
For `N#Cc1cccc2c(C(=O)NCc3cccc4cccnc34)nc(N)nc12`, the pKi at Adenosine receptor A1 was 6.47; on Adenosine receptor A2a [3], 7.62.
`CCCCOc1ccnc2c(CNC(=O)c3nc(N)nc4c(F)cccc34)cccc12`: the Ki entry on Adenosine receptor A2a [1] is on record as “Not Active”. The pKi was 6.13 at Adenosine receptor A1 and 6.61 on Adenosine receptor A2a [3].
Take `C[C@H](NC(=O)c1nc(N)nc2c(F)cccc12)c1cccc2cccnc12`: the pKi is 6.28 at Adenosine receptor A1 and 6.90 at Adenosine receptor A2a [3].
Turning to `Nc1nc(C(=O)NCc2cccc3cccnc23)c2ccc(F)cc2n1`, the pKi at Adenosine receptor A2a [1] is 8.32; at Adenosine receptor A1, 7.51; at Adenosine receptor A2a [3], 9.52. Moreover, the inhibition in vivo at 10 mg/kg in the series with Rattus norvegicus [4] was found to be 39%. Besides, in series [5], the AUC at 1 h was 2.3 µM·h.
In the case of `C[C@@H](NC(=O)c1nc(N)nc2c(F)cccc12)c1cccc2cccnc12`, on Adenosine receptor A1, the pKi is 7.24.
`CSc1cccc2c(C(=O)NCc3cccc4cccnc34)nc(N)nc12`: the pKi at Adenosine receptor A2a [1] was 7.92; at Adenosine receptor A1 it was 6.88. The same molecule showed an AUC at 1 h in series [6] of 8.9 µM·h. For the same molecule, in the series with Rattus norvegicus [2], the inhibition in vivo at 30 mg/kg was found to be 0%.
As to `Nc1nc(C(=O)NCc2cccc3c(C(=O)N4CCN(c5ccccc5)CC4)ccnc23)c2cccc(F)c2n1`, the pKi was 5.22 on Adenosine receptor A1 and 5.81 at Adenosine receptor A2a [3].
The molecule `Nc1nc(C(=O)NCc2cccc3cccnc23)c2cccc(Br)c2n1` had a negative-log Ki (pKi) at Adenosine receptor A1 of 8.00.
On to `CN(CCCc1ccccn1)C(=O)c1cnc2c(CNC(=O)c3nc(N)nc4c(F)cccc34)cccc2c1`, for which the pKi on Adenosine receptor A1 was 6.68; on Adenosine receptor A2a [3], 7.92.
With `Nc1nc(C(=O)NCc2cccc3cc(C(=O)N4CCCc5ccccc54)cnc23)c2cccc(F)c2n1`, the pKi at Adenosine receptor A1 was 6.80; on Adenosine receptor A2a [3], 8.36.
Take `Nc1nc(C(=O)NCc2cccc3c2OCCO3)c2cccc(F)c2n1`: the pKi at Adenosine receptor A1 was 6.99; on Adenosine receptor A2a [3] it was 7.70.
Take `CS(=O)(=O)c1cccc2c(C(=O)NCc3cccc4cccnc34)nc(N)nc12`: the values for the pKi at Adenosine receptor A2a [1] and at Adenosine receptor A1 were 6.52 and 5.32, respectively.
For the molecule `Nc1nc(C(=O)NCc2cccc3cccnc23)c2cccc(I)c2n1`, the pKi at Adenosine receptor A1 was 7.48; on Adenosine receptor A2a [3], 8.51. Further, in the series with Rattus norvegicus [4], the inhibition in vivo at 10 mg/kg was 23%. In series [5], this molecule had an AUC at 1 h of 1.3 µM·h.
As for `Nc1nc(C(=O)NCc2cncc3ccccc23)c2cccc(F)c2n1`, the pKi was 7.11 on Adenosine receptor A1 and 7.57 on Adenosine receptor A2a [3].
As for `Nc1nc(C(=O)NCCc2ccccc2)c2cccc(F)c2n1`, the pKi is 6.25 on Adenosine receptor A1 and 6.80 on Adenosine receptor A2a [3].
For `Nc1nc(C(=O)NCc2cccc3cccnc23)c2cc(F)c(F)cc2n1`, in that order: 7.40 and 8.44.
On the same counts, the results for `Nc1nc(C(=O)NCc2cccc3cccnc23)c2cc(Cl)cc(Cl)c2n1` are 7.30 and 8.18.
For `Nc1nc(C(=O)NCc2cccc3[nH]cnc23)c2cccc(F)c2n1`, in that order: 6.55 and 7.60.
Take `Nc1nc(C(=O)NCc2cccc3cccnc23)c2cccc(Cl)c2n1`: the values for the pKi at Adenosine receptor A2a [1] and on Adenosine receptor A1 were 8.54 and 6.67, respectively. In addition, the inhibition in vivo at 30 mg/kg in the series on Rattus norvegicus [2] came to 35%.
With `Nc1nc(C(=O)NCc2cccc3cccnc23)c2cc(F)ccc2n1`, the pKi at Adenosine receptor A2a [1] was 8.06; on Adenosine receptor A1, 6.46; on Adenosine receptor A2a [3], 8.36. Also, the inhibition in vivo at 10 mg/kg with Rattus norvegicus [4] was 55%. The molecule further gave an AUC at 1 h in series [5] of 0.8 µM·h.
For the molecule `Nc1nc(C(=O)NCc2cccc3c2NCCC3)c2cccc(F)c2n1`, the pKi at Adenosine receptor A1 was 6.67; at Adenosine receptor A2a [3], 8.12.
For `Nc1nc(C(=O)NCc2ccc3ccccc3n2)c2cccc(F)c2n1`, in that order: 7.11 and 7.82.
For the molecule `COCCOc1ccc(N2CCN(C(=O)c3cnc4c(CNC(=O)c5nc(N)nc6c(F)cccc56)cccc4c3)CC2)cc1`, the pKi at Adenosine receptor A2a [1] is 7.94; on Adenosine receptor A1, 6.92; on Adenosine receptor A2a [3], 8.32.
As to `Nc1nc(C(=O)NCc2ccccc2)c2cccc(F)c2n1`, the figures for the pKi on Adenosine receptor A1 and at Adenosine receptor A2a [3] were 7.08 and 8.27, respectively.
On the same counts, the results for `CCn1cnc2c(CNC(=O)c3nc(N)nc4c(F)cccc34)cccc21` are 7.62 and 8.51.
Take `Cc1ccccc1CNC(=O)c1nc(N)nc2c(F)cccc12`: the pKi at Adenosine receptor A1 is 6.94; on Adenosine receptor A2a [3], 7.87.
On the same counts, the results for `Cn1nccc1-c1cccc2c(C(=O)NCc3cccc4cccnc34)nc(N)nc12` are 5.22 and 5.99.
On the same counts, the results for `CCOc1ccnc2c(CNC(=O)c3nc(N)nc4c(F)cccc34)cccc12` are 6.60 and 7.14.
On the same counts, the results for `Nc1nc(C(=O)NCc2cccc3cccnc23)c2cccc(-c3cncnc3)c2n1` are 5.20 and 6.80.
Regarding `Nc1nc(C(=O)NCc2cccc3cc[nH]c23)c2cccc(F)c2n1`, the figures for the negative logarithm of the Ki (pKi) at Adenosine receptor A1 and at Adenosine receptor A2a [3] were 7.27 and 8.09, respectively.
On the same counts, the results for `Nc1nc(C(=O)NCc2cccc3c2C(=O)NC3)c2cccc(F)c2n1` are 8.27 and 8.74.
For `Nc1nc(C(=O)NCc2nccc3ccccc23)c2cccc(F)c2n1`, in that order: 7.08 and 8.17.
For `Nc1nc(C(=O)NCc2cccc3cccnc23)c2cccc(OC(F)(F)F)c2n1`, the results for the pKi on Adenosine receptor A2a [1] and on Adenosine receptor A1 were 8.54 and 7.70, respectively. In the series on Rattus norvegicus [2], the inhibition in vivo at 30 mg/kg turned out to be 0%.
On to `Nc1cc(C(=O)NCc2cccc3cccnc23)c2ccccc2n1`, for which the pKi on Adenosine receptor A1 was 4.75; at Adenosine receptor A2a [3] it was 6.08. In series [7], this molecule yielded a solubility of 19 µM (≈ 6.24 µg/mL).
As to `Nc1nc(C(=O)NCc2ccnc3ccccc23)c2cccc(F)c2n1`, the pKi at Adenosine receptor A1 was 5.00; at Adenosine receptor A2a [3], 6.03.
On the same counts, the results for `Nc1nc(C(=O)NCc2cccc3cc(C(=O)NCCCCCc4ccccc4)cnc23)c2cccc(F)c2n1` are 6.80 and 8.16.
For `Nc1nc(C(=O)NCc2cccc3ccccc23)c2cccc(F)c2n1`, in that order: 7.05 and 8.00.
Take `Nc1nc(C(=O)NCC2CCCCC2)c2cccc(F)c2n1`: the figures for the negative logarithm of the Ki (pKi) at Adenosine receptor A1 and on Adenosine receptor A2a [3] were 6.77 and 7.35, respectively.
Consider `COc1cccc2c(C(=O)NCc3cccc4cccnc34)nc(N)nc12`, for which the figures for the pKi on Adenosine receptor A2a [1] and at Adenosine receptor A1 were 9.22 and 8.22, respectively. This molecule had an AUC at 1 h in series [6] of 0.8 µM·h. Besides, the inhibition in vivo at 30 mg/kg in the series with Rattus norvegicus [2] was found to be 31%.
